One may read the IC50 as the concentration that gives 50% inhibition. High values mean lower potency, low ones higher potency.

Data on 48 compounds can be found in patent publication US11214565B2, “Compound, compositions, and methods” (Denali Therapeutics Inc., priority 2015, dated 2022).

This test deals with LRRK2 G2019S enzyme (Homo sapiens (Human), UniProt Q5S007, G2019S). The test can be described thus: LRRK2 G2019S TR-FRET biochemical kinase assay (LRRKtide substrate). The note with it: Table D-4; 5 nM LRRK2, 134 μM ATP, 60 minute reaction, 23° C. In outline: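 5 nM LRRK2 G2019S preincubated 20 min with LRRKtide and compound (3.162-fold dilution series) in Tris pH 7.5, MgCl2, EGTA, Brij-35, DTT, then reacted 60 min at 23 °C with 134 μM ATP. EDTA-stopped; pLRRKtide antibody detection, TR-FRET read at 340 nm excitation, 520/490–495 nm emission.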
LRRK2 G2019S enzyme, sequence (Q5S007 whole entry G2019S): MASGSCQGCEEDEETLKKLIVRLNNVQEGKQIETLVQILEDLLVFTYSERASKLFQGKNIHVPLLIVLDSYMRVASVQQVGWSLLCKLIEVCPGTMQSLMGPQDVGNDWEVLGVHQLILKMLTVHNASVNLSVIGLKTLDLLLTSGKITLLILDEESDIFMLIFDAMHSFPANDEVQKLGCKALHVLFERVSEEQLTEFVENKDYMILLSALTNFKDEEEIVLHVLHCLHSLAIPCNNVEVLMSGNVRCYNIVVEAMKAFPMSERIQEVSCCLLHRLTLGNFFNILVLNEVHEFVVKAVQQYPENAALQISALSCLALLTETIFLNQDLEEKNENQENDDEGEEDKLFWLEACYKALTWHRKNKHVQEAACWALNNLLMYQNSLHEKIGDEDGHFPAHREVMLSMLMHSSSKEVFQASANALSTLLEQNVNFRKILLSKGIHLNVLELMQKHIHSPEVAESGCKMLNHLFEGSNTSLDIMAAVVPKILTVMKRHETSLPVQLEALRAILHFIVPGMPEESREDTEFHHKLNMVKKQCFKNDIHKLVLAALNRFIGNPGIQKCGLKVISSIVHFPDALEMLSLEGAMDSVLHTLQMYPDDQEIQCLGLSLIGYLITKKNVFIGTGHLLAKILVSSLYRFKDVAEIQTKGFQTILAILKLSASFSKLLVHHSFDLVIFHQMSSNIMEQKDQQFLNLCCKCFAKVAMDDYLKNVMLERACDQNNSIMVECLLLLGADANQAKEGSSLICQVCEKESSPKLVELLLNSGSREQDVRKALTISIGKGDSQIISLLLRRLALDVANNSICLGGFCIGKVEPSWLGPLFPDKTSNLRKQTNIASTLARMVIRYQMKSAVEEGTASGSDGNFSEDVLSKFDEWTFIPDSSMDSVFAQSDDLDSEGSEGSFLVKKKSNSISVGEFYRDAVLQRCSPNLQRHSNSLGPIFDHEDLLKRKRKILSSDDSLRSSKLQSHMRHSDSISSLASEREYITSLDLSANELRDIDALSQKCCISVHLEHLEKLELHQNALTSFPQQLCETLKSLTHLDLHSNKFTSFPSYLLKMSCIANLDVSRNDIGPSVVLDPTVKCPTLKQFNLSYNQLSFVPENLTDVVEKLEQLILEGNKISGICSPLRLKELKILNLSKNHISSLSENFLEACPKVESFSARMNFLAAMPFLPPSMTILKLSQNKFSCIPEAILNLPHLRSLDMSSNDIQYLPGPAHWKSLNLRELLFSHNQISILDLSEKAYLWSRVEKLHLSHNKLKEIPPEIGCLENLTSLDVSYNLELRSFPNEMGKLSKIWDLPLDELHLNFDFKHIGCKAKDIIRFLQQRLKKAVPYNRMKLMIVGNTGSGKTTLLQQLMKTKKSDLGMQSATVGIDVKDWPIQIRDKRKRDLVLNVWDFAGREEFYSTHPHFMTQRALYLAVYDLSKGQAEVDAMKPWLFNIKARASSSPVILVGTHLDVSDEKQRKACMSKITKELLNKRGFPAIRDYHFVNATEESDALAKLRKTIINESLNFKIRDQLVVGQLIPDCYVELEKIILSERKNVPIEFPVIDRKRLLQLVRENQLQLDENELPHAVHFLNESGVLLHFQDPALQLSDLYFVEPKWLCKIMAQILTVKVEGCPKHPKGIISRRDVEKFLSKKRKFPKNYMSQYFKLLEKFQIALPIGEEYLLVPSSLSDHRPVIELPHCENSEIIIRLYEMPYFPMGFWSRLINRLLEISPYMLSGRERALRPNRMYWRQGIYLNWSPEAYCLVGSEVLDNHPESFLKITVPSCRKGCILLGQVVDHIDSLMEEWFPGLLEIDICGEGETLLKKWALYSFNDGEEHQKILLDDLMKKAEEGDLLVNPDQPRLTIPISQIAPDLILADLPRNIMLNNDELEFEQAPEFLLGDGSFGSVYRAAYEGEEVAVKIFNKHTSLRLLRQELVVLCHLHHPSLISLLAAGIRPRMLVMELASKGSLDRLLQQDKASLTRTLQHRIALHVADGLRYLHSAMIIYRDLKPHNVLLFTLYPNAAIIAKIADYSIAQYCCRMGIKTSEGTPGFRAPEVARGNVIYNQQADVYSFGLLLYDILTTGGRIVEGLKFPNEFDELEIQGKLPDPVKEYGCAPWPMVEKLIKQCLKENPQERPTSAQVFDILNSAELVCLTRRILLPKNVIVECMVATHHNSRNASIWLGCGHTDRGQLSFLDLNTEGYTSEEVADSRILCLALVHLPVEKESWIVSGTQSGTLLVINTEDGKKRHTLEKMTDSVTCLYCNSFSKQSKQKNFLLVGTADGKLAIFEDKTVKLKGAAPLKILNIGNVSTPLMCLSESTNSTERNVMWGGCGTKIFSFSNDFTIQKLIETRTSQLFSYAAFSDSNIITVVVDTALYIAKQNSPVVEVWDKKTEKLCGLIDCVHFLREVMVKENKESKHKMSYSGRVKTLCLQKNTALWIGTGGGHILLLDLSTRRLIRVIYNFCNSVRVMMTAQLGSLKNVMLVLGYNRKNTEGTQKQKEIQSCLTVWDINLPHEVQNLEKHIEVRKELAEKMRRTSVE
In general terms: In TR-FRET formats the signal depends on donor and acceptor labels being close together.
Turning to `CNc1nc(Nc2cn([C@H]3C[C@@H](n4cccn4)C3)nc2C)ncc1C(F)(F)F` [Compound D-27, cis-N4-methyl-N2-[3-methyl-1-(3-pyrazol-1-ylcyclobutyl)pyrazol-4-yl]-5-(trifluoromethyl)pyrimidine-2,4-diamine], the IC50 is below 30 nM.
With `CNc1nc(Nc2cn([C@H]3C[C@@H](S(C)(=O)=O)C3)nc2C)ncc1C(F)(F)F` [Compound D-28, cis-N4-methyl-N2-[3-methyl-1-(3-methylsulfonylcyclobutyl)pyrazol-4-yl]-5-(trifluoromethyl)pyrimidine-2,4-diamine], the IC50 is below 30 nM.
`CNc1nc(Nc2cnn([C@H]3C[C@H](CC#N)C3)c2C)ncc1C(F)(F)F` [Compound D-29, trans-2-[3-[4-[[5-(difluoromethyl-fluoranyl)-4-(methylamino)pyrimidin-2-yl]amino]-5-methyl-pyrazol-1-yl]cyclobutyl]acetonitrile] came in with an IC50 below 30 nM.
With `CNc1nc(Nc2cn([C@H]3C[C@H](CC#N)C3)nc2C)ncc1C(F)(F)F` [Compound D-30, trans-2-[3-[4-[[5-(difluoromethyl-fluoranyl)-4-(methylamino)pyrimidin-2-yl]amino]-3-methyl-pyrazol-1-yl]cyclobutyl]acetonitrile], the IC50 is below 30 nM.
Then `CNc1nc(Nc2cnn([C@H]3C[C@H](COC(F)F)C3)c2C)ncc1C(F)(F)F` [Compound D-31, trans-N2-[1-[3-(difluoromethoxymethyl)cyclobutyl]-5-methyl-pyrazol-4-yl]-5-(difluoromethyl-fluoranyl)-N4-methyl-pyrimidine-2,4-diamine], with below 30 nM.
The compound `CNc1nc(Nc2cn([C@H]3C[C@H](COC(F)F)C3)nc2C)ncc1C(F)(F)F` [Compound D-32, trans-N2-[1-[3-(difluoromethoxymethyl)cyclobutyl]-3-methyl-pyrazol-4-yl]-5-(difluoromethyl-fluoranyl)-N4-methyl-pyrimidine-2,4-diamine] yielded an IC50 below 30 nM.
Then `CNc1nc(Nc2cnn(CC3(CC#N)CC3)c2Cl)ncc1C(F)(F)F` [Compound D-33, 2-(1-((5-chloro-4-((4-(methylamino)-5-(trifluoromethyl)pyrimidin-2-yl)amino)-1H-pyrazol-1-yl)methyl)cyclopropyl)acetonitrile], with below 30 nM; and `CNc1nc(Nc2cn(C3CCCn4ccnc43)nc2C)ncc1C(F)(F)F` [Compound D-34, N^4-methyl-N^2-(3-methyl-1-(5,6,7,8-tetrahydroimidazo[1,2-a]pyridin-8-yl)-1H-pyrazol-4-yl)-5-(trifluoromethyl)pyrimidine-2,4-diamine], with below 30 nM.
For the compound `CNc1nc(Nc2cn(C3CCc4c(C)noc43)nc2C)ncc1C(F)(F)F` [Compound D-35, N^4-methyl-N^2-(3-methyl-1-(3-methyl-5,6-dihydro-4H-cyclopenta[d]isoxazol-6-yl)-1H-pyrazol-4-yl)-5-(trifluoromethyl)pyrimidine-2,4-diamine], the half-inhibitory concentration (IC50) is below 30 nM.
Regarding `CNc1nc(Nc2cn(C3CCn4nccc43)nc2C)ncc1C(F)(F)F` [Compound D-36, N^2-(1-(5,6-dihydro-4H-pyrrolo[1,2-b]pyrazol-4-yl)-3-methyl-1H-pyrazol-4-yl)-N^4-methyl-5-(trifluoromethyl)pyrimidine-2,4-diamine], the IC50 was above 60 nM.
Regarding `CNc1nc(Nc2cn(C3CCc4c3cnn4C)nc2C)ncc1C(F)(F)F` [Compound D-37, N^4-methyl-N^2-(3-methyl-1-(1-methyl-1,4,5,6-tetrahydrocyclopenta[c]pyrazol-4-yl)-1H-pyrazol-4-yl)-5-(trifluoromethyl)pyrimidine-2,4-diamine], the IC50 lay within 30 to 60 nM.
`CCSc1nc(Nc2cn(C(C)(C)C#N)nc2C)ncc1Cl` [Compound D-44, 2-[4-[(5-chloro-4-ethylsulfanyl-pyrimidin-2-yl)amino]-3-methyl-pyrazol-1-yl]-2-methyl-propanenitrile] displayed an IC50 below 30 nM.
Then `CCSc1nc(Nc2cn(C(C)(C)C#N)nc2C)ncc1C(F)(F)F` [Compound D-45, 2-[4-[[4-ethylsulfanyl-5-(trifluoromethyl)pyrimidin-2-yl]amino]-3-methyl-pyrazol-1-yl]-2-methyl-propanenitrile], with below 30 nM; and `CSc1nc(Nc2cn(C(C)(C)C#N)nc2C)ncc1C(F)(F)F` [Compound D-46, 2-methyl-2-[3-methyl-4-[[4-methylsulfanyl-5-(trifluoromethyl)pyrimidin-2-yl]amino]pyrazol-1-yl]propanenitrile], with 30 to 60 nM; and `CCSc1nc(Nc2cn(C(C)(C)C#N)nc2C)ncc1C#N` [Compound D-47, 2-[[1-(1-cyano-1-methyl-ethyl)-3-methyl-pyrazol-4-yl]amino]-4-ethylsulfanyl-pyrimidine-5-carbonitrile], with above 60 nM.
As for `CNc1nc(Nc2cnn(C(C)COC(F)F)c2C)ncc1C(F)(F)F` [Compound D-48, N2-[1-[2-(difluoromethoxy)-1-methyl-ethyl]-5-methyl-pyrazol-4-yl]-5-(difluoromethyl-fluoranyl)-N4-methyl-pyrimidine-2,4-diamine], the IC50 is below 30 nM.
`CNc1nc(Nc2cnn([C@H]3C[C@@H](n4cccn4)C3)c2C)ncc1C(F)(F)F` [Compound D-49, cis-N4-methyl-N2-[5-methyl-1-(3-pyrazol-1-ylcyclobutyl)pyrazol-4-yl]-5-(trifluoromethyl)pyrimidine-2,4-diamine]: the IC50 was below 30 nM.
For `CNc1nc(Nc2cnn([C@H]3C[C@@H](S(C)(=O)=O)C3)c2C)ncc1C(F)(F)F` [Compound D-50, cis-N4-methyl-N2-[5-methyl-1-(3-methylsulfonylcyclobutyl)pyrazol-4-yl]-5-(trifluoromethyl)pyrimidine-2,4-diamine] the value was below 30 nM; for `CNc1nc(Nc2cnn(C3CCc4c3cnn4C)c2C)ncc1C(F)(F)F` [Compound D-56], below 30 nM.
For `CCNc1nc(Nc2cn(C3CCc4ncsc43)nc2C)ncc1C(F)(F)F` [Compound D-57] the value was below 30 nM; for `CCNc1nc(Nc2cnn([C@H]3C[C@H](n4nccn4)C3)c2C)ncc1C(F)(F)F` [Compound D-58], below 30 nM.
For the compound `CCNc1nc(Nc2cnn([C@H]3C[C@@H](n4cncn4)C3)c2C)ncc1C(F)(F)F` [Compound D-59], the half-inhibitory concentration (IC50) was below 30 nM.
Regarding `CCNc1nc(Nc2cnn(C3Cc4nccn4C3)c2C)ncc1C(F)(F)F` [Compound D-60], the IC50 is below 30 nM.
The compound `CCNc1nc(Nc2cnn([C@H]3C[C@H](n4ncnc4C(F)(F)F)C3)c2C)ncc1C(F)(F)F` [Compound D-61] came in with an IC50 below 30 nM.
On to `CCNc1nc(Nc2cn(C3CCn4ccnc43)nc2Cl)ncc1C(F)(F)F` [Compound D-62], for which the IC50 is above 60 nM.
`Cc1c(Nc2ncc(C(F)(F)F)c(NCC(F)F)n2)cnn1[C@H]1C[C@@H](n2cccn2)C1` [Compound D-63]: the IC50 was below 30 nM.
`CNc1nc(Nc2cnn([C@H]3C[C@H](n4cc(F)cn4)C3)c2C)ncc1C(F)(F)F` [Compound D-64]: the IC50 is below 30 nM.
Compound `CCNc1nc(Nc2cnn(C3CCn4nccc43)c2C)ncc1C(F)(F)F` [Compound D-65] came in with an IC50 below 30 nM.
`CCNc1nc(Nc2cn([C@H]3C[C@H](c4cocn4)C3)nc2C)ncc1C(F)(F)F` [Compound D-66] yielded an IC50 below 30 nM.
Turning to `CNc1nc(Nc2cn(C3CCn4cncc43)nc2C)ncc1C(F)(F)F` [Compound D-67], the IC50 is above 60 nM.
In turn, `CCOc1nc(Nc2cn(C3CCn4ccnc43)nc2C)ncc1C(F)(F)F` [Compound D-68] showed an IC50 above 60 nM.
For `CNc1nc(Nc2cn(C3CCC(n4ccnn4)C3)nc2C)ncc1C(F)(F)F` [Compound D-69], the IC50 was below 30 nM.
Regarding `CNc1nc(Nc2cnn(C(C)COC(F)F)c2C)ncc1C(F)(F)F` [Compound D-70], the IC50 is below 30 nM.
`CNc1nc(Nc2cnn([C@H]3C[C@H](n4cccn4)C3)c2C)ncc1C(F)(F)F` [Compound D-71] came in with an IC50 below 30 nM.
`CNc1nc(Nc2cn(C3(c4ncnn4C)CCC3)nc2C)ncc1C(F)(F)F` [Compound D-72] came in with an IC50 above 60 nM.
Take `CCNc1nc(Nc2cnn([C@H]3C[C@H](n4ccnn4)C3)c2C)ncc1C(F)(F)F` [Compound D-73]: the IC50 was below 30 nM.
As to `CCNc1nc(Nc2cn(C3Cc4nccn4C3)nc2C)ncc1C(F)(F)F` [Compound D-74], the IC50 was below 30 nM.
`Cc1c(Nc2ncc(C(F)(F)F)c(NCC(F)F)n2)cnn1[C@H]1C[C@H](n2nccn2)C1` [Compound D-75] showed an IC50 below 30 nM.
Then `CCNC(=O)C(F)(F)n1cc(Nc2ncc(C(F)(F)F)c(NCC)n2)c(C)n1` [Compound D-76], with below 30 nM; and `CNc1nc(Nc2cnn([C@H]3C[C@@H](n4nccn4)C3)c2C)ncc1C(F)(F)F` [Compound D-77], with below 30 nM; and `CCNc1nc(Nc2cnn(C3CCCn4ccnc43)c2C)ncc1C(F)(F)F` [Compound D-78], with above 60 nM.
For `CCNc1nc(Nc2cn(C3CCc4c(C)noc43)nc2C)ncc1C(F)(F)F` [Compound D-79] the value was below 30 nM; for `CCNc1nc(Nc2cn(C(C)COC(F)F)nc2C)ncc1C(F)(F)F` [Compound D-80], below 30 nM.
As for `CCNc1nc(Nc2cnn([C@H]3C[C@@H](N4CCOCC4)C3)c2C)ncc1C(F)(F)F` [Compound D-81], the IC50 was below 30 nM.
For `CCNc1nc(Nc2cnn(C(C)COC(F)F)c2C)ncc1C(F)(F)F` [Compound D-82] the value was below 30 nM.
As to `CNc1nc(Nc2cn([C@H]3C[C@@H](c4nncs4)C3)nc2C)ncc1C(F)(F)F` [Compound D-83], the IC50 was below 30 nM.
For `CCNc1nc(Nc2cnn([C@H]3C[C@H](c4cocn4)C3)c2C)ncc1C(F)(F)F` [Compound D-84], the IC50 is below 30 nM.
For `CCNc1nc(Nc2cnn([C@H]3C[C@H](n4nccn4)C3)c2C)ncc1Br` [Compound D-85] the value was below 30 nM.
